Experiments:
T antigen [1] = molecular target: T1, T antigen (Simian virus 40, UniProt P03070); experiment: ATPase activity of purified T antigen; format: biochemical, polyomavirus; conditions: for Fold change in ATPase activity of T antigen: compound 10 μM, purified T antigen, normalized to DMSO, mean of 3 experiments
Hsp70 + Hdj2 = Hsp70 + Hdj2 (Homo sapiens, UniProt P0DMV8); experiment: Hsp40; format: biochemical; conditions: carboxylic acid in place of tetrazole
JC Virus = experiment: JC virus replication in COS7 cells; format: cell-based; conditions: comparison with cidofovir
human Hsp70 = human Hsp70 (Homo sapiens, UniProt P0DMV8); experiment: Endogenous Hsp70 ATPase activity; format: biochemical
[2] = tested on: human foreskin fibroblasts; experiment: Cytotoxicity in human foreskin fibroblasts; format: cell-based; conditions: in words
RMS13 and MCF7 cells = experiment: Growth inhibition of the two cancer lines; format: cell-based; conditions: Homo sapiens, read-out: GI50 across the two cancer lines
T antigen [3] = molecular target: T1, T antigen; conditions: cited from earlier work

T1 sequence (P03070 whole entry): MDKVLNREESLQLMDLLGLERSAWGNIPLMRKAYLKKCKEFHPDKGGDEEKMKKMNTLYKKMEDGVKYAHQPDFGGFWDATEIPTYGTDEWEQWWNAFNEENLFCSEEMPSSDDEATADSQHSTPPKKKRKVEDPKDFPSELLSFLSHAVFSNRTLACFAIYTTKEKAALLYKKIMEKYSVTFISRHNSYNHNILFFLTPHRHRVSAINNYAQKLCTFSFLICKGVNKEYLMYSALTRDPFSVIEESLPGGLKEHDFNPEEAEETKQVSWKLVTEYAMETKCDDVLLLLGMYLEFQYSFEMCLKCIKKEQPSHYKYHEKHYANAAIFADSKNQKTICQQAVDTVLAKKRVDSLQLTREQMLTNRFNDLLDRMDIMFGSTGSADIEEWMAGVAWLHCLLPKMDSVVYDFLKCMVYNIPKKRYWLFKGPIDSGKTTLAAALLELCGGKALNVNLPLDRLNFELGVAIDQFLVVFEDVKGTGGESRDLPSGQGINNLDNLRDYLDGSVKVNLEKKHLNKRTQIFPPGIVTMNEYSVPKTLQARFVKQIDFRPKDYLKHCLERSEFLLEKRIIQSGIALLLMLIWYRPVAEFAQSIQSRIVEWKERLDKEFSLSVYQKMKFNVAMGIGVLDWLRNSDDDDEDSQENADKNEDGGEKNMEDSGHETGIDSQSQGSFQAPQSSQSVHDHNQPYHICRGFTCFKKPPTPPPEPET
Sequence of human Hsp70 (P0DMV8 whole entry): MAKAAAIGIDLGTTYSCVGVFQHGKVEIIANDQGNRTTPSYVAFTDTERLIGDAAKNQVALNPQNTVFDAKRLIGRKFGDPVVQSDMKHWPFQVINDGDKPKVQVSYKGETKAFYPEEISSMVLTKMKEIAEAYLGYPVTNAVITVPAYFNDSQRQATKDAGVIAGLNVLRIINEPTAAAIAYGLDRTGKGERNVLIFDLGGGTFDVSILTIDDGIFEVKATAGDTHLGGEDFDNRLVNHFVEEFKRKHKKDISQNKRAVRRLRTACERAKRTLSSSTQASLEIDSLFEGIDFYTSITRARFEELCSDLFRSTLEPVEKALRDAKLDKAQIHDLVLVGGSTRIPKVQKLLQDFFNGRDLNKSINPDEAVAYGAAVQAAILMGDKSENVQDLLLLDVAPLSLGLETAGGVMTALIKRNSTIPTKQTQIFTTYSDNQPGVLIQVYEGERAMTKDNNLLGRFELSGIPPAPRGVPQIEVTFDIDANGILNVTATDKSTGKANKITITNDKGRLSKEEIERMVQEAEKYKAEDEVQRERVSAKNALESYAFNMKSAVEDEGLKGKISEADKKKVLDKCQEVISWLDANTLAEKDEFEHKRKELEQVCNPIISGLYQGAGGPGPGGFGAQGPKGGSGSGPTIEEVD
Sequence of Hsp70 + Hdj2 (P0DMV8 whole entry): as above

| SMILES | Fold change in ATPase activity of T antigen (T antigen [1]) [fold] | other results |
| --- | --- | --- |
| CC1=C(C(=O)OCc2ccccc2)C(c2ccc(-c3ccccc3C)cc2)N(Cc2ccc(-c3nnn[nH]3)cc2)C(=S)N1 (centres unmarked) [AMT551-058] | −7.5 | – |
| CC1=C(C(=O)OCc2ccccc2)C(c2ccc(-c3ccccc3)cc2)N(CCCCCC(=O)O)C(=S)N1 (centres unmarked) [AMT551-071] | −1.6 | – |
| CC1=C(C(=O)OCc2ccccc2)C(c2ccc(-c3ccccc3)cc2)NC(=S)N1Cc1ccc(-c2nnn[nH]2)cc1 (centres unmarked) [AMT551-078] | −5.5 | – |
| CC1=C(C(=O)OCc2ccccc2)C(c2ccc(-c3ccccc3)cc2)NC(=S)N1CCCCCC(=O)O (centres unmarked) [AMT551-090] | −1.5 | Effect on Hsp40-dependent activation of Hsp70, in words (Hsp70 + Hdj2): either lacked inhibitory activity or modesty stimulated |
| CC1=C(C(=O)OCc2ccccc2)C(c2ccc(-c3ccccc3C)cc2)NC(=S)N1Cc1ccc(-c2nnn[nH]2)cc1 (centres unmarked) [AMT551-093] | −7.7 | – |
| CC1=C(C(=O)OCc2ccccc2)C(c2ccc(-c3ccccc3)cc2)NC(=S)N1CCCCCc1nnn[nH]1 (centres unmarked) [AMT580-027] | −2.1 | – |
| CC1=C(C(=O)OCc2ccccc2)C(c2ccc(-c3ccccc3C)cc2)NC(=S)N1CCCCCc1nnn[nH]1 (centres unmarked) [AMT580-033] | −4.7 | – |
| CC1=C(C(=O)OCc2ccccc2)C(c2ccc(-c3ccccc3)cc2)N(Cc2ccc(-c3nnn[nH]3)cc2)C(=S)N1 (centres unmarked) [AMT580-043] | −4.5 | Inhibition of polyomavirus replication in cell culture, in words (JC Virus): more potently than an existing drug, cidofovir |
| CC1=C(C(=O)OCc2ccccc2)C(c2ccc(-c3ccccc3)cc2)N(Cc2ccc(-c3nnn[nH]3)cc2)C(=O)N1 (centres unmarked) [AMT628-003] | −2.3 | – |
| CC1=C(C(=O)OCc2ccccc2)C(c2ccc(-c3ccccc3)cc2)NC(=O)N1CCCCCc1nnn[nH]1 (centres unmarked) [BQU015242] | −1.4 | Effect on endogenous Hsp70 ATPase activity, in words (human Hsp70): modestly inhibited |
| Nc1ccn(C[C@@H](CO)OCP(=O)(O)O)c(=O)n1.O.O [Cidofovir] | – | Toxicity relative to the dihydropyrimidines [2]: significantly less toxic than the dihydropyrimidines |
| CC1=C(C(=O)OCc2ccccc2)C(c2ccc(-c3ccccc3C)cc2)NC(=O)N1CCCCCc1nnn[nH]1 (centres unmarked) [LR340-006] | −2.1 | – |
| CC1=C(C(=O)OCc2ccccc2)C(c2ccc(-c3ccccc3)cc2)NC(=O)N1CCCCCC(=O)O (centres unmarked) [MAL2-11B] | −1.5 | Effect on Hsp40-dependent activation of Hsp70, in words (Hsp70 + Hdj2): either lacked inhibitory activity or modesty stimulated |
| CCCCCCN(C(=O)CCCCCN1C(=O)NC(c2ccc(-c3ccccc3)cc2)C(C(=O)OCc2ccccc2)=C1C)C(C(=O)NCCCC)c1ccc(OCC(=O)OC)c(C(=O)OC)c1 (centres unmarked) [MAL3-101] | – | GI50 (RMS13 and MCF7 cells): 6 to 13 µM |
| CC1=C(C(=O)OCc2ccccc2)C(c2ccc(-c3ccccc3)cc2)NC(=O)N1Cc1ccc(-c2nnn[nH]2)cc1 (centres unmarked) [ML282-56] | −2.0 | – |
| CC1=C(C(=O)OCc2ccccc2)C(c2ccc(-c3ccccc3C)cc2)NC(=O)N1Cc1ccc(-c2nnn[nH]2)cc1 (centres unmarked) [SMAL] | – | Effect on endogenous Hsp70 ATPase activity, in words (human Hsp70): modestly inhibited; Effect on T antigen ATPase activity, in words (T antigen [1]; final concentration 10 μM): significantly reduced the ATPase activity of T antigen; IC50 (T antigen [3]; read-out: IC50 T antigen ATPase activity): 5 µM; EC50 (T antigen [3]; read-out: reported EC50 (T antigen ATPase)): ~5 µM |
